# Experimental data taken from patent publication US9249159B2, “Composition for treating hepatitis C virus, regulating phosphorylation of replicase” (Industry-Academic Cooperation Foundation, Yonsei University, priority 2011, dated 2016).
# What was measured:
# [1] = system: genotype 1b HCV subgenomic replicon (R-1 cell line); assay: HCV replication (HCV RNA by real-time RT-PCR, NS5B protein by Western blot) in R-1 subgenomic replicon cells; assay type: cell-based, hepatitis C virus genotype 1b; settings: for decrease of HCV RNA titers with respect to DMSO control: R-1 cell line, 20 μM, 48 hours
# From the text: In order to check a PRK2 phosphorylation inhibition effect of the novel inhibitors obtained in Example 1, R-1 cell line harboring HCV subgenomic replicons was used.
# The R-1 cell line was comprised of cis-acting RNA elements of 5′ and 3′-end untranslated regions (UTR) essential for replication of HCV RNA, a selection marker inserted to select a replicated RNA into a portion from which a structural protein coding site was removed, and a non-structural protein (NS3-NS5B)-coding gene required for replication. In the replicon, the selection marker was expressed by the HCV 5′-UTR and internal ribosome entry site (IRES) as a part of a coding gene of a core protein as a structural protein and capsid protein, and HCV non-structural proteins were expressed by IRES of EMCV. In order to obtain replicon cells, a HCV subgenomic replicon RNA was obtained by means of in vitro transcription by using a T7 RNA polymerase, free ribonucleotide was removed by using a spin column, and introduced into a hepatocellular carcinoma cell line by electroporation. In the presence of G418, a stable cell line, i.e. a cell line showing a resistance to G418 through replication of HCV subgenome, was obtained. Expression of the HCV non-structural proteins in this cell line was analyzed by Western blot to confirm that replication was being carried out, and the R-1 cell line was constructed. It was observed that an HCV RNA copy number was about 10^7 copies/mL by a quantitative real-time PCR analysis using a TaqMan probe. The R-1 cell line was a cell line in which HCV RNA replication was being carried out, and thus it could be used to evaluate an HCV replication inhibition effect of a PRK2 activity inhibitor.
# Then, after the R-1 cell line was treated with each of 5 screened PRK2 inhibitors, HA1077 currently and clinically used as a PRK2 activity inhibitor, and Y27632 having a PRK2 activity inhibition effect at a final concentration of 20 μM for 48 hours, levels of HCV NS5B protein and HCV RNA in cell lysates (50 μg) were analyzed by Western blot and real-time RT-PCR.
# (§1) To do so, after the two cell lines were treated with the compound #17 at higher concentrations (60 and 100 μM) than 20 μM for 48 hours, an HCV RNA genome level was checked by a real-time RT-PCR analysis. A value was a mean±standard deviation (SD) of three independent measurements. HCV RNA titer was quantified by real-time PCR analysis. Three independent experiments were performed in triplicate.
# 5 derivatives (#18 to #22: refer to FIG. 2) were produced based on the inhibitor #17 showing the best effect. After the R-1 cell line was treated with each of these inhibitors or HA1077 and Y27632 at a final concentration of 20 μM for 48 hours, an HCV RNA genome level was checked by a real-time RT-PCR analysis and expressed in % with respect to a control treated with DSMO. Three independent experiments were conducted repeatedly three times. Data were expressed by mean±SD of the three experiments.
# (§2) Total RNA was extracted from R-1 or HCV (JFH1)-infected cells using TRIzol LS reagent (Invitrogen, Carlsbad, Calif., USA) and purified according to the manufacturer's instructions. HCV RNA levels were quantified by RT-PCR using a primer pair and TaqMan probe targeting a region within the HCV 5′-UTR as described previously. Cellular glyceraldehyde-3-phosphate dehydrogenase was used as an internal control. Assays were performed using the DyNAmo Probe 2-step qRT-PCR Kit (Finnzymes, Espoo, Finland) and a CHROMO4 continuous fluorescence detector (Bio-Rad, Hercules, Calif., USA), according to the manufacturer's instructions.
# (§3) Therefore, anti-HCV activity of 17-DMAG in the R-1 cell was tested at a level lower than 50 nM. To do so, the R-1 cell was treated with a vehicle (0.25% DMSO) or 17-DMAG for 72 hours and the cell lysates (50 μg) and antibodies specific to the proteins were immunoblotted to measure levels of the proteins. An anti-α-tubulin antibody (lower end panel) was used as an internal loading control. […]
# [2] = system: genotype 2a HCV (JFH1)-infected Huh7 cells; assay: HCV RNA level in Huh7 cells infected with HCV (JFH1); assay type: cell-based, hepatitis C virus genotype 2a; settings: JFH1-infected Huh7 cell, 100 IU/mL alone, 72 hours
# Protocol: as §1
# Full-length, infectious HCV RNA of the genotype 2a HCV clone JFH1 was prepared by in vitro transcription using the MEGAscript T7 kit (Ambion, Austin, Tex., USA) and electroporated into Huh7 cells as described previously. Briefly, at 72 h post electroporation, culture medium was collected, cleared by low-speed centrifugation, and passed through a 0.45-μm filter (Millipore, Billerica, Mass., USA) before being used for infection of Huh7 cells. Cells were infected with HCV at a multiplicity of infection of 0.3 by adsorption for 3 h with periodic rocking, then washed three times with phosphate-buffered saline (PBS) and maintained in complete DMEM. […]
# as §2, with “Cellular glyceraldehyde-3-phosphate dehydrogenase was used as an internal control.” left out
# In order to analyze whether or not 17-DMAG can inhibit replication in a cell infected with HCV, an experiment was carried out with the genotype 2a HCV infectious clone JFH1, which produces infectious virions in Huh7 or Huh7-derived cell lines. […] After 72 hours, total cellular RNA was extracted and HCV remaining in the infected cell was analyzed by quantitative RT-PCR.
# [3] = system: PRK2; assay: PRK2 level in Huh7 cell by immunoblotting; assay type: cell-based; settings: 100 IU/ml IFN-α
# [4] = system: PDK1; assay: PDK1 level and activation in R-1 cell by immunoblotting; assay type: cell-based; settings: 100 IU/ml, hourly for 6 hours
# From the text: Total cell lysates from cells treated with inhibitors or IFN-α by using antibodies to PDK1, p-PDK1 (S241), PRK2, and p-PRK2 (T816) (products of Cell Signaling Technology, Inc., Beverly, Mass., USA) was used for immunoblotting. In order to detect PKC isoforms α, β, and γ, a polyclonal antibody to a consensus sequence present in three PKC (protein kinase C) isoforms α, β and γ (anti-pan-PKC; Zymed Laboratories, San Francisco, Calif., USA) was used. An anti-α-tubulin antibody (Oncogene Research Products, Cambridge, Mass., USA) was carried out in immunoblotting for checking whether or not the same amount of protein was loaded.
# as §3, with “control. The levels of the proteins were measured by densitometric analysis of immunoblot, and the phosphorylated amounts and relative intensities calculated with respect to PDK1 and PDK2 were converted with respect to α-tubulin signals and then quantitated. As a result of three independent experiments showing similar results, a representative blot picture was illustrated.” for “control.”
# [5] = target: T1, PRK2 (Homo sapiens, UniProt Q16513); assay: PRK2 phosphorylation (Thr816) and PRK2 level in R-1 cells by Western blot; assay type: cell-based; settings: R-1 cell, 100 IU/ml, hourly for 6 hours
# T1 construct: endogenous in cells; host or cells: R-1 (Huh7-derived HCV replicon cells) and Huh7
# T1 sequence (Q16513 whole entry): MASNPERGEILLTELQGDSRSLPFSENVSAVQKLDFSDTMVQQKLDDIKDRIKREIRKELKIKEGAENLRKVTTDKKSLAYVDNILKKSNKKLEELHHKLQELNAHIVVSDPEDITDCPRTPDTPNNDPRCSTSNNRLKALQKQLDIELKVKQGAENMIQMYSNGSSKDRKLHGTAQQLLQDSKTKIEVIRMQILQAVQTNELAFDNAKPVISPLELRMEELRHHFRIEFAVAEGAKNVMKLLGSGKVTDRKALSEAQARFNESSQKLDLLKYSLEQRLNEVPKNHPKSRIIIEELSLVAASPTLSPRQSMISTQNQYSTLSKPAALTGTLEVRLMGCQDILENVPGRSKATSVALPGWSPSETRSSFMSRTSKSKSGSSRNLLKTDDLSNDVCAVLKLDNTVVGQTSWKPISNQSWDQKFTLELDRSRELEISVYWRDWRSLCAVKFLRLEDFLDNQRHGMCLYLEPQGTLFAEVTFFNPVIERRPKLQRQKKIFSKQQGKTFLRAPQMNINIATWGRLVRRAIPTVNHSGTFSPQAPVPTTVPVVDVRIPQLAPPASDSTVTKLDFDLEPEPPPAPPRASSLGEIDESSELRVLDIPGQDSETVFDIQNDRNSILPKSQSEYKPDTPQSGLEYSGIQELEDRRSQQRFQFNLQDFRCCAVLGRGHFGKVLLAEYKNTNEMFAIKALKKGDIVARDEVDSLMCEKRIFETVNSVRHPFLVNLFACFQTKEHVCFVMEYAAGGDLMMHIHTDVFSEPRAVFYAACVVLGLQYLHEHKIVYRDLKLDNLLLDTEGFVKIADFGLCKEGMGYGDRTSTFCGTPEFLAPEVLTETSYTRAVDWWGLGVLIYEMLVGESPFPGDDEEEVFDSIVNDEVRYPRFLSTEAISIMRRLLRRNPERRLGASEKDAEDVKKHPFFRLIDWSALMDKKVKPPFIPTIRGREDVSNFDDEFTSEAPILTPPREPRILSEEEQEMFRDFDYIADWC
# Protocol: After the R-1 cell line was treated with the PRK2 inhibitor at a final concentration of 10 or 20 μM for 48 hours, phosphorylation or not of Thr^816 residue essential for activity of PRK2 was analyzed by Western blot using a phospho-PRK2 antibody to measure an expression level of phosphorylated PRK2. Immunoblotting using an anti-α-tubulin antibody was carried out to check whether or not the same amount of protein was loaded.
# Then, in order to check whether or not IFN-α affected a PDK1-PRK2 signaling pathway, the R-1 cell was treated with 100 IU/ml of IFN-α hourly for 6 hours. SDS-PAGE was carried out to the cell lysates, and immunoblotting was carried out. The immunoblotting with anti-α-tubulin antibody was used as an internal control for loading. A representative result from one of the three independent experiments showing a similar result was illustrated.
# [6] = system: HCV NS5B; assay: NS5B phosphorylation in Huh7TR-NS cell (anti-p-Ser immunoprecipitation, anti-NS5B immunoblot); assay type: cell-based, hepatitis C virus; settings: 17-DMAG 50 nM or HA1077 20 μM, 48 hours
# Protocol: The human hepatoma stable cell lines Huh7TR-4 and Huh7TR-NS [17], which express the tetracycline repressor and the HCV NS proteins (NS3-NS5) in a tetracycline-inducible manner, respectively, were maintained in the presence of blasticidin S (10 μg/mlL and Zeocine (100 μg/mL). NS protein expression in Huh7TR-NS was induced by addition of 1 μg/mL tetracycline for 24 h. The Huh7 cell-derived cell line R-1, supporting stable, autonomous replication of genotype 1b HCV subgenomic replicon RNA, was described previously. 17-DMAG, the PRK2 inhibitor, HA1077, and the inhibitor of phosphatidylinositol 3-kinase (PI3K), LY294002, were obtained from Sigma-Aldrich (St. Louis, Mo., USA) and Calbiochem Inc. (La Jolla, Calif., USA), and Biomol (Plymouth Meeting, Pa., USA), respectively. IFN-α was purchased from Sigma-Aldrich (1-4276).
# For co-immunoprecipitation experiment, the cells were resuspended in lysis buffer A (100 mM Tris-HCl, pH 8.0, 150 mM NaCl, 1% Triton X-100, 10 mM NaF, 1 mM Na3VO4, 17.5 mM β-glycerophosphate) supplemented with an EDTA-free protease inhibitor cocktail (Roche Applied Science, Indianapolis, Ind., USA) and incubated on ice for 30 min. […]
# Then, treatment with 17-DMAG (50 nM) or HA1077 (20 μM), a PRK2 inhibitor, was carried out for 48 hours. […] A case without treatment with an inhibitor was expressed as (−).
# [7] = target: recombinant active PRK2 (Homo sapiens, UniProt Q16513); assay: In vitro kinase assay: recombinant PRK2 phosphorylating HCV NS5B; assay type: biochemical; settings: gamma-32P ATP and 100 μM ATP, autoradiography
# recombinant active PRK2, sequence (Q16513 whole entry): as above
# Protocol: Then, in order to test an HCV NS5B protein phosphorylation inhibition effect of the screened novel PRK2 inhibitor, in vitro kinase assay was carried out.
# Using a recombinant active PRK2 and purified HCV NS5B protein as substrates, the screened inhibitors #11 and #17 were treated in the presence of gamma-^32P ATP and 100 μM ATP. The reaction mixture was separated by SDS-PAGE (8% gel), and a result thereof was checked by autoradiography.
# Finally, PRK2 and HCV NS5B phosphorylation inhibition effects of the compounds #18, #19, #20, #21 and #22 as the derivatives of the compound #17 were analyzed through in vitro kinase assay.
# A 1 μM recombinant PRK2 and 10 μM HCV NS5B were phosphorylated for 30 minutes in the presence of 10 μCi γ-^32P ATP and 100 μM ATP. The reaction mixture was separated by SDS-PAGE (8% gel), and a result thereof was checked by autoradiography.
compound,measurement,setting,value
C[C@@H](N)[C@H]1CC[C@H](C(=O)Nc2ccncc2)CC1 [Y27632],decrease of HCV RNA titers with respect to DMSO control,[1],49%
"O=C(Nc1ccncc1)c1ccc[nH]c1=O [compound 20, 2-oxo-N-(4-pyridinyl)-1,2-dihydro-3-pyridinecarboxamide]",decrease of HCV RNA titers with respect to DMSO control,[1],approximately 60%
IFN-α,decrease of content of HCV RNA,"[1]; R-1 cell, 100 IU/ml alone, 72 hours",approximately 80%
same,inhibition of virus RNA replication,[2],about 90%
same,PDK1 and PRK2 contents and activation,[3],A similar result was observed
same,activation of PDK1,[4],any change in activation of PDK1 in the treated cell was not observed
same,p-PRK2 content or PRK2 content,[5],any significant change in p-PRK2 content or PRK2 content was not observed
O=S(=O)(c1cccc2cnccc12)N1CCCNCC1 [HA1077],decrease of HCV RNA titers with respect to DMSO control,[1],40%
same,anti-HCV activity in combined treatment with IFN-α,"[1]; R-1 cell, HA1077 20 μM combined with IFN-α 100 IU/ml",anti-HCV activity of IFN-α was improved
same,NS5B phosphorylation,[6],also inhibited NS5B phosphorylation
"O=C(Nc1ccc2[nH]cnc2c1)C1CCCCC1 [compound #11, cyclohexanecarboxylic acid (1H-benzoimidazole-5-yl)-amide]",inhibition of in vitro phosphorylation of HCV NS5B protein,[7],inhibit phosphorylation of HCV NS5B protein
